The assay addresses T1, GLP-1 Receptor (Homo sapiens, UniProt P43220).
T1 construct: host or cells: HEK293/GLP1R/CRE-LUC (HEK293/CRE-Luc stably expressing the GLP-1 receptor)
Briefly: GLP-1R agonist cAMP stimulation assay (HEK293/GLP1R/CRE-LUC cells, Cisbio cAMP dynamic 2 kit).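 Note: compounds tested in half-log serial dilution, cAMP detected with cAMP-d2 and anti-cAMP cryptate antibody reagents after 1 h at room temperature.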 The format is cell-based. Conditions: HEK293/CRE-Luc cell line stably expressing the GLP-1 Receptor; 1000 cells/well; 30 min at 37° C.; 0.5 mM IBMX, 0.1% BSA; read-out: GLP1R cAMP Stimulation DR: EC50.

The results in this text go back to US11897851B2, “Heterocyclic GLP-1 agonists” (Gasherbrum Bio, Inc., priority 2021, dated 2024).

T1 sequence (P43220 24-463, species assumed): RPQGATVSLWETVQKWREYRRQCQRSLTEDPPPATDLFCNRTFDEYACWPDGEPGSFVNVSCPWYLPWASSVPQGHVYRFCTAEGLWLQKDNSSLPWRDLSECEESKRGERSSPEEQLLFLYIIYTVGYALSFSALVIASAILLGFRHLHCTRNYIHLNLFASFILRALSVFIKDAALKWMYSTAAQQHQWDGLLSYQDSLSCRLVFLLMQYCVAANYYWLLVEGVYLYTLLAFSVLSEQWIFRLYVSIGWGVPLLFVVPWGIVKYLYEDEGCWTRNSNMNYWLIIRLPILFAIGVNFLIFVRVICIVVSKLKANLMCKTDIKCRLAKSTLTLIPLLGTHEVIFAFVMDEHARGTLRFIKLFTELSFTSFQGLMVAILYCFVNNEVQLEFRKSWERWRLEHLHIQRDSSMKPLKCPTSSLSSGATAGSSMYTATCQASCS

With `COc1cccc(Cn2c(/C=C/C(=O)O)cnc2CN2CCC(c3cccc4c3OC(C)(c3ccc(Cl)cc3F)O4)CC2)c1` (stereo not drawn) [Compound 149, (E)-3-(2-((4-(2-(4-chloro-2-fluorophenyl)-2-methylbenzo[d][1,3]dioxol-4-yl)piperidin-1-yl)methyl)-1-(3-methoxybenzyl)-1H-imidazol-5-yl)acrylic acid], the EC50 is 120 pM.

Consider `CC1(c2ccc(Cl)cc2F)Oc2cccc(C3CCN(Cc4ncc(/C=C/C(=O)O)n4Cc4cccc(Cl)c4)CC3)c2O1` (stereo not drawn) [Compound 150, (E)-3-(2-((4-(2-(4-chloro-2-fluorophenyl)-2-methylbenzo[d][1,3]dioxol-4-yl)piperidin-1-yl)methyl)-1-(3-chlorobenzyl)-1H-imidazol-5-yl)acrylic acid], for which the EC50 is 54 pM.

For `CC1(c2ccc(Cl)cc2F)Oc2cccc(C3CCN(Cc4ncc(/C=C/C(=O)O)n4Cc4ccccc4)CC3)c2O1` (stereo not drawn) [Compound 151, (E)-3-(1-benzyl-2-((4-(2-(4-chloro-2-fluorophenyl)-2-methylbenzo[d][1,3]dioxol-4-yl)piperidin-1-yl)methyl)-1H-imidazol-5-yl)acrylic acid], the EC50 stood at 43 pM. Take `C[C@@H](c1ccccc1)n1c(/C=C/C(=O)O)cnc1CN1CCC(c2cccc3c2OC(C)(c2ccc(Cl)cc2F)O3)CC1` (stereo partly drawn) [Compound 152, (E)-3-(2-((4-(2-(4-chloro-2-fluorophenyl)-2-methylbenzo[d][1,3]dioxol-4-yl)piperidin-1-yl)methyl)-1-((S)-1-phenylethyl)-1H-imidazol-5-yl)acrylic acid]: the EC50 worked out at 530 pM. For the compound `C[C@H](c1ccccc1)n1c(/C=C/C(=O)O)cnc1CN1CCC(c2cccc3c2OC(C)(c2ccc(Cl)cc2F)O3)CC1` (stereo partly drawn) [Compound 153, (E)-3-(2-((4-(2-(4-chloro-2-fluorophenyl)-2-methylbenzo[d][1,3]dioxol-4-yl)piperidin-1-yl)methyl)-1-((R)-1-phenylethyl)-1H-imidazol-5-yl)acrylic acid], the concentration for a half-maximal effect (EC50) turned out to be 18000 pM. Take `CC1(c2ccc(Cl)cc2F)Oc2cccc(C3CCN(Cc4ncc(/C=C/C(=O)O)n4C[C@H]4CCOC4)CC3)c2O1` (stereo partly drawn) [Compound 154, (E)-3-(2-((4-(2-(4-chloro-2-fluorophenyl)-2-methylbenzo[d][1,3]dioxol-4-yl)piperidin-1-yl)methyl)-1-(((R)-tetrahydrofuran-3-yl)methyl)-1H-imidazol-5-yl)acrylic acid]: the EC50 turned out to be 12 pM.

As to `C[C@]1(c2ccc(Cl)cc2F)Oc2cccc(C3CCN(Cc4ncc(/C=C/C(=O)O)n4C[C@H]4CCOC4)CC3)c2O1` [Compound 155, (E)-3-(2-((4-((S)-2-(4-chloro-2-fluorophenyl)-2-methylbenzo[d][1,3]dioxol-4-yl)piperidin-1-yl)methyl)-1-(((R)-tetrahydrofuran-3-yl)methyl)-1H-imidazol-5-yl)acrylic acid], the EC50 is 5.4 pM. Consider `CC1(c2ccc(Cl)cc2F)Oc2cccc(C3CCN(Cc4ncc(/C=C/C(=O)O)n4C[C@@H]4CCOC4)CC3)c2O1` (stereo partly drawn) [Compound 156, (E)-3-(2-((4-(2-(4-chloro-2-fluorophenyl)-2-methylbenzo[d][1,3]dioxol-4-yl)piperidin-1-yl)methyl)-1-(((S)-tetrahydrofuran-3-yl)methyl)-1H-imidazol-5-yl)acrylic acid], for which the EC50 was 86 pM. `CC1(c2ccc(Cl)cc2F)Oc2cccc(C3CCN(Cc4ncc(/C=C/C(=O)O)n4CC4(F)COC4)CC3)c2O1` (stereo not drawn) [Compound 157, (E)-3-(2-((4-(2-(4-chloro-2-fluorophenyl)-2-methylbenzo[d][1,3]dioxol-4-yl)piperidin-1-yl)methyl)-1-((3-fluorooxetan-3-yl)methyl)-1H-imidazol-5-yl)acrylic acid]: the EC50 was 260 pM. On to `CC(C)OCCn1c(/C=C/C(=O)O)cnc1CN1CCC(c2cccc3c2OC(C)(c2ccc(Cl)cc2F)O3)CC1` (stereo not drawn) [Compound 158, (E)-3-(2-((4-(2-(4-chloro-2-fluorophenyl)-2-methylbenzo[d][1,3]dioxol-4-yl)piperidin-1-yl)methyl)-1-(2-isopropoxyethyl)-1H-imidazol-5-yl)acrylic acid], for which the EC50 was determined as 56 pM. As to `COC(C)Cn1c(/C=C/C(=O)O)cnc1CN1CCC(c2cccc3c2OC(C)(c2ccc(Cl)cc2F)O3)CC1` (stereo not drawn) [Compound 159, (E)-3-(2-((4-(2-(4-chloro-2-fluorophenyl)-2-methylbenzo[d][1,3]dioxol-4-yl)piperidin-1-yl)methyl)-1-(2-methoxypropyl)-1H-imidazol-5-yl)acrylic acid], the EC50 came out at 51 pM.

Take `CC1(c2ccc(Cl)cc2F)Oc2cccc(C3CCN(Cc4ncc(/C=C/C(=O)O)n4C[C@H]4CCCO4)CC3)c2O1` (stereo partly drawn) [Compound 160, (E)-3-(2-((4-(2-(4-chloro-2-fluorophenyl)-2-methylbenzo[d][1,3]dioxol-4-yl)piperidin-1-yl)methyl)-1-(((R)-tetrahydrofuran-2-yl)methyl)-1H-imidazol-5-yl)acrylic acid]: the half-maximal effective concentration (EC50) was 120 pM. For the compound `CC1(c2ccc(Cl)cc2F)Oc2cccc(C3CCN(Cc4ncc(/C=C/C(=O)O)n4CCS(C)(=O)=O)CC3)c2O1` (stereo not drawn) [Compound 161, (E)-3-(2-((4-(2-(4-chloro-2-fluorophenyl)-2-methylbenzo[d][1,3]dioxol-4-yl)piperidin-1-yl)methyl)-1-(2-(methylsulfonyl)ethyl)-1H-imidazol-5-yl)acrylic acid], the EC50 is 180 pM. Take `CC1(c2ccc(Cl)cc2F)Oc2cccc(C3CCN(Cc4ncc(/C=C/C(=O)O)n4CC4CC4)CC3)c2O1` (stereo not drawn) [Compound 162, (E)-3-(2-((4-(2-(4-chloro-2-fluorophenyl)-2-methylbenzo[d][1,3]dioxol-4-yl)piperidin-1-yl)methyl)-1-(cyclopropylmethyl)-1H-imidazol-5-yl)acrylic acid]: the EC50 turned out to be 140 pM. To `CC1(c2ccc(Cl)cc2F)Oc2cccc(C3CCN(Cc4ncc(/C=C/C(=O)O)n4[C@@H]4CCOC4)CC3)c2O1` (stereo partly drawn) [Compound 163, (E)-3-(2-((4-(2-(4-chloro-2-fluorophenyl)-2-methylbenzo[d][1,3]dioxol-4-yl)piperidin-1-yl)methyl)-1-((R)-tetrahydrofuran-3-yl)-1H-imidazol-5-yl)acrylic acid] belongs 130 pM; to `Cn1c(/C=C/C(=O)O)cnc1CN1CCC(c2cccc3c2OC(C)(c2ccc(Cl)cc2F)O3)CC1` (stereo not drawn) [Compound 164, (E)-3-(2-((4-(2-(4-chloro-2-fluorophenyl)-2-methylbenzo[d][1,3]dioxol-4-yl)piperidin-1-yl)methyl)-1-methyl-1H-imidazol-5-yl)acrylic acid], 330 pM; to `CC1(c2ccc(Cl)cc2F)Oc2cccc(C3CCN(Cc4ncc(/C=C/C(=O)O)n4CC4CCS4(=O)=O)CC3)c2O1` (stereo not drawn) [Compound 165, (E)-3-(2-((4-(2-(4-chloro-2-fluorophenyl)-2-methylbenzo[d][1,3]dioxol-4-yl)piperidin-1-yl)methyl)-1-((1,1-dioxidothietan-2-yl)methyl)-1H-imidazol-5-yl)acrylic acid], 14 pM. As for `COC1(Cn2c(/C=C/C(=O)O)cnc2CN2CCC(c3cccc4c3OC(C)(c3ccc(Cl)cc3F)O4)CC2)CCC1` (stereo not drawn) [Compound 166, (E)-3-(2-((4-(2-(4-chloro-2-fluorophenyl)-2-methylbenzo[d][1,3]dioxol-4-yl)piperidin-1-yl)methyl)-1-((1-methoxycyclobutyl)methyl)-1H-imidazol-5-yl)acrylic acid], the EC50 was 69 pM.

Regarding `CC1(c2ccc(Cl)cc2F)Oc2cccc(C3CCN(Cc4ncc(/C=C/C(=O)O)n4CC4CCC4(F)F)CC3)c2O1` (stereo not drawn) [Compound 167, (E)-3-(2-((4-(2-(4-chloro-2-fluorophenyl)-2-methylbenzo[d][1,3]dioxol-4-yl)piperidin-1-yl)methyl)-1-((2,2-difluorocyclobutyl)methyl)-1H-imidazol-5-yl)acrylic acid], the EC50 came to 65 pM. For `CC1(c2ccc(Cl)cc2F)Oc2cccc(C3CCN(Cc4ncc(/C=C/C(=O)O)n4CCOC(F)F)CC3)c2O1` (stereo not drawn) [Compound 168, (E)-3-(2-((4-(2-(4-chloro-2-fluorophenyl)-2-methylbenzo[d][1,3]dioxol-4-yl)piperidin-1-yl)methyl)-1-(2-(difluoromethoxy)ethyl)-1H-imidazol-5-yl)acrylic acid], the EC50 was found to be 46 pM.

Turning to `C[C@@H](Cn1c(/C=C/C(=O)O)cnc1CN1CCC(c2cccc3c2O[C@@](C)(c2ccc(Cl)cc2F)O3)CC1)OC(F)F` [Compound 169a, (E)-3-(2-((4-((S)-2-(4-chloro-2-fluorophenyl)-2-methylbenzo[d][1,3]dioxol-4-yl)piperidin-1-yl)methyl)-1-((S)-2-(difluoromethoxy)propyl)-1H-imidazol-5-yl)acrylic acid], the EC50 was 160 pM. On to `C[C@H](Cn1c(/C=C/C(=O)O)cnc1CN1CCC(c2cccc3c2O[C@@](C)(c2ccc(Cl)cc2F)O3)CC1)OC(F)F` [Compound 169b, (E)-3-(2-((4-((S)-2-(4-chloro-2-fluorophenyl)-2-methylbenzo[d][1,3]dioxol-4-yl)piperidin-1-yl)methyl)-1-((R)-2-(difluoromethoxy)propyl)-1H-imidazol-5-yl)acrylic acid], for which the EC50 is 15 pM. On to `C[C@@H](Cn1c(/C=C/C(=O)O)cnc1CN1CCC(c2cccc3c2O[C@@](C)(c2ccc(Cl)cc2F)O3)CC1)OC1CC1` [Compound 170a, (E)-3-(2-((4-((S)-2-(4-chloro-2-fluorophenyl)-2-methylbenzo[d][1,3]dioxol-4-yl)piperidin-1-yl)methyl)-1-((S)-2-cyclopropoxypropyl)-1H-imidazol-5-yl)acrylic acid], for which the EC50 is 2500 pM.

Regarding `C[C@H](Cn1c(/C=C/C(=O)O)cnc1CN1CCC(c2cccc3c2O[C@@](C)(c2ccc(Cl)cc2F)O3)CC1)OC1CC1` [Compound 170b, (E)-3-(2-((4-((S)-2-(4-chloro-2-fluorophenyl)-2-methylbenzo[d][1,3]dioxol-4-yl)piperidin-1-yl)methyl)-1-((R)-2-cyclopropoxypropyl)-1H-imidazol-5-yl)acrylic acid], the concentration for a half-maximal effect (EC50) turned out to be 6.7 pM.

What is called EC50 is the concentration that produces a half-maximal response.
